Data from publication PMC11087982, “In vitro and in vivo activities of a trithiolato-diRuthenium complex conjugated with sulfadoxine against the apicomplexan parasite Toxoplasma gondii” (International Journal for Parasitology: Drugs and Drug …, 2024).

How the values were obtained:
[1] = tested on: T. gondii β-gal tachyzoites; assay: T. gondii β-Gal tachyzoite proliferation in HFF monolayers (β-galactosidase fluorometric assay); type: cell-based, Toxoplasma gondii
Description: Effects of drugs on the proliferative capacity of T. gondii tachyzoites were investigated using a transgenic T. gondii RH strain constitutively expressing β-Galactosidase (T. gondii β-Gal ([Dc et al., 1997]);). Assays were carried out in 96 well plates in the presence or absence of the different compounds. For the quantification of β-Galactosidase activity, a fluorometric assay was applied as previously described ([Desiatkina et al., 2021]; [Păunescu et al., 2021]).

HFF = HFF host cell cytotoxicity, Alamar blue viability assay; type: cell-based, human; settings: 72 h, uninfected HFF
Description: To determine cytotoxicity of compounds on host cells, HFF were grown to confluency in 96 well plates and were treated with different concentrations of the drugs solubilized in medium during 72 h at 37 °C/5% CO2, or were treated with the corresponding concentration of DMSO only ([Desiatkina et al., 2020]; [Holzer et al., 2023]; [Păunescu et al., 2021]). The Alamar blue viability assay was used as previously described ([Desiatkina et al., 2020], [2021], [2022a], [2022b]; [Holzer et al., 2023]; [Păunescu et al., 2021]). In short, resazurin was added to each well at 0.01 mg/ml, and subsequently fluorescence of the produced resorufin was measured at excitation wavelength 544/20 nm and emission wavelength 590/20 nm using a Hidex Sense microplate reader (Hidex, Turku, Finland).

[2] = tested on: zebrafish (Danio rerio) embryo; assay: Zebrafish embryo acute toxicity test; type: in vivo; settings: for Malformations (No. embryos with malformations / fertilized embryos) / Mortality (No. of dead embryos / fertilized embryos) / Unaffected embryos (No. / fertilized embryos): 96 h
Description: The zebrafish (Danio rerio) embryo acute toxicity test was carried out to assess the impact of RU-SDX on early embryo development as previously described ([Anghel et al., 2020]). RU-SDX was assessed at 0.2, 2 and 20 μM, while the bumped kinase inhibitor BKI-1748 (applied at 50 μM) was used as a positive control resulting in 100% mortality of zebrafish embryos ([Anghel et al., 2020]). For each test- and control condition, a 24 well plate containing 24 fertilized eggs (1 egg/well) was used. Negative control plates contained 1 ml of E3 medium/osmosis water, whereas eggs in solvent control plates were incubated in E3 medium containing 0.01% DMSO ([Anghel et al., 2020]). For each treatment, a survival rate was calculated that reflected the degree of either embryo death or malformations during the first 96 h of development in relation to eggs maintained without compound.

[3] = tested on: T. gondii Me49 tachyzoites; assay: Transmission electron microscopy of treated tachyzoites in HFF; type: cell-based, Toxoplasma gondii; settings: 0.5 μM, 6 h of treatment
Description: We examined the cellular ultrastructure of T. gondii tachyzoites treated with RU-SDX by TEM as described previously ([Anghel et al., 2021]; [Desiatkina et al., 2020]). Briefly, confluent HFF grown in T25 flasks were infected with 10^5 T. gondii Me49 tachyzoites, and infected cultures were maintained for 24 h at 37 °C/5% CO2. Subsequently, the medium was removed and medium containing 0.5 μM RU-SDX or 0.05% DMSO (as solvent control) was added, and cultures were maintained at 37 °C/5% CO2 during 6, 24 or 48 h. At the different timepoints the samples were fixed and processed for TEM ([Anghel et al., 2021]; [Desiatkina et al., 2020]). For this, cultures were washed with 0.1 M sodium cacodylate buffer (pH 7.3) and fixed in 2% glutaraldehyde in cacodylate buffer for 10 min at room temperature (RT). The fixed infected monolayers were gently scraped from the flasks, transferred into Eppendorf tubes, washed with in ice-cold 0.1 M sodium cacodylate buffer and fixed in 2% glutaraldehyde in cacodylate buffer for 2 h at RT. Further preparation steps included post-fixation in 2% osmium tetroxide, pre-staining, stepwise dehydration in ethanol, and embedding in Epon-812 resin. In some instances, T25 flasks containing HFF monolayers infected with T. gondii Me49 tachyzoites were treated with FCCP and CCCP for 10 min at 80 and 50 μM, respectively, and samples were prepared for TEM as described above. […]

With `CC(C)(C)c1ccc(C[S-])cc1.CC(C)(C)c1ccc(C[S-])cc1.COc1ncnc(NS(=O)(=O)c2ccc(NC(=O)Cc3ccc([S-])cc3)cc2)c1OC.Cc1ccc(C(C)C)cc1.Cc1ccc(C(C)C)cc1.[Cl-].[Ru+2].[Ru+2]` [RU-SDX] the “T. gondii proliferation in relation to the non-treated control” value ([1]; 0.1 μM) was 77%, the “T. gondii proliferation in relation to the non-treated control” value ([1]; 1 μM) was 2% and the “proliferation (% of control ± SD)” value ([1]; 2.5 μM) was “^∗∗∗0 ± 0%”. The “proliferation (% of control ± SD)” value ([1]; 5 μM) was “^∗∗∗0 ± 0%”, the IC50 ([1]; drug treatment applied concomitantly to infection of HFF monolayers) was 0.112 µM and the IC50 ([1]; drug treatment initiated 3 h post infection, 95% CI in brackets) was 0.145 µM. The IC50 ([1]; drug treatment initiated concomitantly to infection, 95% CI in brackets) was 0.112 µM, the IC50 ([1]; drug treatment on already infected HFF) was 0.145 µM and the IC50 ([1]; tachyzoites grown in HFF monolayers, drug added concomitantly to or after infection) was < 0.15 µM. For the same molecule, the “viability (% of control ± SD)” value (HFF; 2.5 μM) was 79 ± 4%, the “viability (% of control ± SD)” value (HFF; 5 μM) was 64 ± 4% and the “viability (% of control ± SD)” value (HFF; 10 μM) was 31 ± 9%. The “survival score (surviving embryos without malformations)” value ([2]; 0.2 μM) was 95%, the “Malformations (No. embryos with malformations / fertilized embryos)” value ([2]; 0.2 μM) was 0/20 and the “Mortality (No. of dead embryos / fertilized embryos)” value ([2]; 0.2 μM) was 1/20. For the same molecule, the “Unaffected embryos (No. / fertilized embryos)” value ([2]; 0.2 μM) was 19/20, the “survival score (surviving embryos without malformations)” value ([2]; 2 μM) was 90% and the “Malformations (No. embryos with malformations / fertilized embryos)” value ([2]; 2 μM) was 1/20. The “Mortality (No. of dead embryos / fertilized embryos)” value ([2]; 2 μM) was 1/20, the “Unaffected embryos (No. / fertilized embryos)” value ([2]; 2 μM) was 18/20 and the “survival score (surviving embryos without malformations)” value ([2]; 20 μM) was “no surviving embryos”. The “Malformations (No. embryos with malformations / fertilized embryos)” value ([2]; 20 μM) was 0/20, the “Mortality (No. of dead embryos / fertilized embryos)” value ([2]; 20 μM) was 20/20 and the “Unaffected embryos (No. / fertilized embryos)” value ([2]; 20 μM) was 0/20. For the same molecule, the “time of peak of mortality of zebrafish embryos” value ([2]; 20 μM, h of embryogenesis) was 72 h and the “ultrastructural changes in tachyzoites (TEM)” value [3] was “mitochondrial matrix appeared to have lost its characteristic electron dense texture in many areas”.
